# According to PubChem BioAssay AID2060901 (Molecular Pharmacology Branch, DTP, NCI, 2025):
# Test system: 422866-222-R5-J1-PDC complex spheroids viability
# Test: Anticancer human tumor 422866-222-R5-J1-PDC patient-derived pancreatic adenocarcinoma cell line growth inhibition [RAS]
# Settings: for IC50: curve of first compound; for viability, T/C: stronger effect = lower value
# Text: RAS pathway inhibitors in Combinations in Complex Spheroids
# A high-throughput screen of multi-cell type tumor spheroids was designed to identify active combinations of RAS pathway inhibitors and targeted small molecules. Complex spheroids include a stromal component modeled by human endothelial cells (HUVEC) and fibroblasts modeled by human mesenchymal stem cells (MSCs). The concentration ranges selected for each drug and investigational agent were based upon clinically achievable concentrations if the clinical Cmax of the agent was known.
# Compounds. The drugs and investigational agents: abemaciclib (NSC768073), cobimetinib (NSC768068), divarasib (GDC6063, NSC841802), docetaxel (NSC628503), GDC-1971 (RLY-1971, NSC841576), gemcitabine (NSC613327), inavolisib (NSC800729), ipatasertib (NSC767898), KB-0742 (NSC834161), MRTX-1133 (NSC836407), osimertinib (NSC779217), RMC-4630 (NSC839698), RMC-6236 (NSC851965), RMC-6291 (NSC852671), Ro-3306 (NSC812927), sapanisertib (NSC764658), SN-38 (NSC673596), staurosporine (NSC755774), SY5609 (NSC837396), and tovorafenib (DAY101, NSC766906), were obtained from the National Cancer Institute (NCI) Developmental Therapeutics Program Chemical Repository. The FDA-approved anticancer drug set is available from the NCI Developmental Therapeutics Program. […] The stock solutions were prepared in dimethyl sulfoxide (DMSO, Sigma-Aldrich, St. Louis, MO, cat. D2650) at 800-fold the tested concentration and stored at -70 degrees C prior to their use. All drugs and investigational agents were tested over a range starting from a high concentration at or near the clinical Cmax and decreasing in half-log increments. If the clinical Cmax for an agent had not been determined, the highest concentration tested was 10 microM.
# Cell Culture. All cells were maintained in an incubator at 37 degrees C and 5% CO2 with 95% humidity. The PDC lines were cultured according to standard operating procedures established by the NCI PDMR. All PDCs were thawed and cultured in Matrigel-coated flasks prepared with a working solution of 1X Ham's F-12 nutrient mix, without supplementation (Invitrogen, Waltham, MA, cat. 11765054), 100 U/mL penicillin-streptomycin (Invitrogen, cat. 15140122), and 2.5% Matrigel (Corning Inc., Corning, NY, cat. 354248) for the first three passages. The 362531-283-R-J2-PDC and 782815-120-R-J1-PDC lines were cultured in 6C/Colon 1B media, which includes advanced DMEM/F-12 (Thermo Fisher Scientific, cat. 12634028), 10 mM HEPES (Thermo Fisher Scientific, cat. 15630080), 1X GlutaMAX supplement (Thermo Fisher Scientific, cat. 35050061), 0.1 mg/mL primocin (InvivoGen, San Diego, CA, cat. ant-pm-2), 10% defined fetal bovine serum, heat inactivated (HyClone Laboratories Inc., Logan, UT, cat. SH30070.03HI), 50% L-WRN conditioned media (ATCC, cat. CRL-3276), 1.25 mM N-Acetyl-L-cysteine (Sigma-Aldrich, cat. A9165), 10 mM nicotinamide (Sigma-Aldrich, cat. N0636), 1X B-27 supplement (Thermo Fisher Scientific, cat. 17504044), 1X N-2 supplement (Thermo Fisher Scientific, cat. 17502048), 50 ng/mL human EGF (Thermo Fisher Scientific, cat. PHG0311), and 10 microM Y-27632 dihydrochloride (Tocris Bioscience, cat. 1254). The K12877-001-R-J1-PDC line was cultured in 6I media, which includes all 6C/Colon 1B media plus 10 ng/mL human FGF-10 (PeproTech, cat. 100-26), 1 ng/mL human FGF-2 (PeproTech, cat. 100-18B), 1 µM prostaglandin E2 (Tocris Bioscience, cat. 2296), […] hydrocortisone (Sigma-Aldrich, cat. H4001), and […] bovine insulin (Sigma-Aldrich, cat. I6634). The K86415-001-R-J1-PDC line was cultured in 6D media, which includes all 6C/Colon 1B media components minus the L-WRN conditioned media. The 485176-168-R4-J1-PDC was cultured in PANC media, which includes all 6C/Colon 1B media plus 100 ng/mL human FGF-10 (PeproTech, cat. 100-26), 500 nM SB-431542 (Selleckchem, cat. S1067), and 10 nM gastrin (Tocris Bioscience, cat. 3006). […]
# 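Note: spheroids exposed to compounds for 7 days.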
# 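Throughout, for viability, T/C: 100% = DMSO vehicle control viability.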
compound,measurement,setting,value
CCc1c2c(nc3ccc(O)cc13)-c1cc3c(c(=O)n1C2)COC(=O)[C@]3(O)CC + CCn1c(-c2cc(N3CCN(C)CC3)cnc2C(C)OC)c2c3cc(ccc31)-c1csc(n1)CC(NC(=O)C1CC1C)C(=O)N1CCCC(N1)C(=O)OCC(C)(C)C2,IC50,second compound 0.000949 µM,< 0.000949 µM
same,IC50,second compound 0.003 µM,< 0.000949 µM
same,IC50,second compound 0.00949 µM,< 0.000949 µM
same,IC50,second compound 0.03 µM,< 0.000949 µM
same,IC50,second compound 0.0949 µM,< 0.000949 µM
same,IC50,second compound 0.3 µM,< 0.000949 µM
same,"viability, T/C","second compound 0.000949 µM, first compound 0.000949 µM",25.3%
same,"viability, T/C","second compound 0.000949 µM, first compound 0.003 µM",20.3%
same,"viability, T/C","second compound 0.000949 µM, first compound 0.00949 µM",21.6%
same,"viability, T/C","second compound 0.000949 µM, first compound 0.03 µM",19.5%
same,"viability, T/C","second compound 0.000949 µM, first compound 0.0949 µM",17.7%
same,"viability, T/C","second compound 0.000949 µM, first compound 0.3 µM",12.6%
same,"viability, T/C","second compound 0.003 µM, first compound 0.000949 µM",22.5%
same,"viability, T/C","second compound 0.003 µM, first compound 0.003 µM",17%
same,"viability, T/C","second compound 0.003 µM, first compound 0.00949 µM",15.4%
same,"viability, T/C","second compound 0.003 µM, first compound 0.03 µM",16.7%
same,"viability, T/C","second compound 0.003 µM, first compound 0.0949 µM",14.1%
same,"viability, T/C","second compound 0.003 µM, first compound 0.3 µM",8.32%
same,"viability, T/C","second compound 0.00949 µM, first compound 0.000949 µM",18.9%
same,"viability, T/C","second compound 0.00949 µM, first compound 0.003 µM",14.7%
same,"viability, T/C","second compound 0.00949 µM, first compound 0.00949 µM",13.8%
same,"viability, T/C","second compound 0.00949 µM, first compound 0.03 µM",13.2%
same,"viability, T/C","second compound 0.00949 µM, first compound 0.0949 µM",11.3%
same,"viability, T/C","second compound 0.00949 µM, first compound 0.3 µM",7.61%
same,"viability, T/C","second compound 0.03 µM, first compound 0.000949 µM",16.6%
same,"viability, T/C","second compound 0.03 µM, first compound 0.003 µM",15.6%
same,"viability, T/C","second compound 0.03 µM, first compound 0.00949 µM",14.6%
same,"viability, T/C","second compound 0.03 µM, first compound 0.03 µM",12.8%
same,"viability, T/C","second compound 0.03 µM, first compound 0.0949 µM",10%
same,"viability, T/C","second compound 0.03 µM, first compound 0.3 µM",6.17%
same,"viability, T/C","second compound 0.0949 µM, first compound 0.000949 µM",17%
same,"viability, T/C","second compound 0.0949 µM, first compound 0.003 µM",15%
same,"viability, T/C","second compound 0.0949 µM, first compound 0.00949 µM",13.8%
same,"viability, T/C","second compound 0.0949 µM, first compound 0.03 µM",12.5%
same,"viability, T/C","second compound 0.0949 µM, first compound 0.0949 µM",9.66%
same,"viability, T/C","second compound 0.0949 µM, first compound 0.3 µM",6.78%
same,"viability, T/C","second compound 0.3 µM, first compound 0.000949 µM",16.2%
same,"viability, T/C","second compound 0.3 µM, first compound 0.003 µM",15.7%
same,"viability, T/C","second compound 0.3 µM, first compound 0.00949 µM",16.8%
same,"viability, T/C","second compound 0.3 µM, first compound 0.03 µM",12.8%
same,"viability, T/C","second compound 0.3 µM, first compound 0.0949 µM",10.1%
same,"viability, T/C","second compound 0.3 µM, first compound 0.3 µM",5.7%
CC1(O)CCCC1n1c(=O)c(C(F)F)cc2cnc(NC3CCN(S(C)(=O)=O)CC3)nc21 (centres undefined) + CCn1c(-c2cccnc2C(C)OC)c2c3cc(ccc31)N1CCOC(CC(NC(=O)C(C(C)C)N(C)C(=O)C3(F)CCN(C(=O)C#CC(C)(C)N(C)C)CC3)C(=O)N3CCCC(N3)C(=O)OCC(C)(C)C2)C1,IC50,second compound 0.000949 µM,< 0.0316 µM
same,IC50,second compound 0.003 µM,< 0.0316 µM
same,IC50,second compound 0.00949 µM,< 0.0316 µM
same,IC50,second compound 0.03 µM,< 0.0316 µM
same,IC50,second compound 0.0949 µM,< 0.0316 µM
same,IC50,second compound 0.3 µM,< 0.0316 µM
same,"viability, T/C","second compound 0.000949 µM, first compound 0.0316 µM",28.6%
same,"viability, T/C","second compound 0.000949 µM, first compound 0.1 µM",30.5%
same,"viability, T/C","second compound 0.000949 µM, first compound 0.316 µM",29.6%
same,"viability, T/C","second compound 0.000949 µM, first compound 1 µM",31.9%
same,"viability, T/C","second compound 0.000949 µM, first compound 3.16 µM",40.8%
same,"viability, T/C","second compound 0.000949 µM, first compound 10 µM",38.2%
same,"viability, T/C","second compound 0.003 µM, first compound 0.0316 µM",24.8%
same,"viability, T/C","second compound 0.003 µM, first compound 0.1 µM",34.6%
same,"viability, T/C","second compound 0.003 µM, first compound 0.316 µM",24.7%
same,"viability, T/C","second compound 0.003 µM, first compound 1 µM",27.1%
same,"viability, T/C","second compound 0.003 µM, first compound 3.16 µM",29.8%
same,"viability, T/C","second compound 0.003 µM, first compound 10 µM",38.2%
same,"viability, T/C","second compound 0.00949 µM, first compound 0.0316 µM",25.3%
same,"viability, T/C","second compound 0.00949 µM, first compound 0.1 µM",24.8%
same,"viability, T/C","second compound 0.00949 µM, first compound 0.316 µM",25.2%
same,"viability, T/C","second compound 0.00949 µM, first compound 1 µM",26.8%
same,"viability, T/C","second compound 0.00949 µM, first compound 3.16 µM",34.3%
same,"viability, T/C","second compound 0.00949 µM, first compound 10 µM",45.2%
same,"viability, T/C","second compound 0.03 µM, first compound 0.0316 µM",22.9%
same,"viability, T/C","second compound 0.03 µM, first compound 0.1 µM",20.5%
same,"viability, T/C","second compound 0.03 µM, first compound 0.316 µM",23.5%
same,"viability, T/C","second compound 0.03 µM, first compound 1 µM",23%
same,"viability, T/C","second compound 0.03 µM, first compound 3.16 µM",29.7%
same,"viability, T/C","second compound 0.03 µM, first compound 10 µM",45.4%
same,"viability, T/C","second compound 0.0949 µM, first compound 0.0316 µM",21.1%
same,"viability, T/C","second compound 0.0949 µM, first compound 0.1 µM",20.5%
same,"viability, T/C","second compound 0.0949 µM, first compound 0.316 µM",22.4%
same,"viability, T/C","second compound 0.0949 µM, first compound 1 µM",22%
same,"viability, T/C","second compound 0.0949 µM, first compound 3.16 µM",29.9%
same,"viability, T/C","second compound 0.0949 µM, first compound 10 µM",43.5%
same,"viability, T/C","second compound 0.3 µM, first compound 0.0316 µM",15.5%
same,"viability, T/C","second compound 0.3 µM, first compound 0.1 µM",19.8%
same,"viability, T/C","second compound 0.3 µM, first compound 0.316 µM",19%
same,"viability, T/C","second compound 0.3 µM, first compound 1 µM",20.5%
same,"viability, T/C","second compound 0.3 µM, first compound 3.16 µM",24.9%
same,"viability, T/C","second compound 0.3 µM, first compound 10 µM",47.3%
